Values after ≈ are worked out from the molar mass of the structure shown. Where a name gives a salt, the structure may show the parent alone. Read-outs that look alike come from different tables or passages of the source.
Experiments:
H37RvMA = assay: Tuberculosis Alamar Blue/Resazurin assay (MIC); format: cell-based; settings: Mycobacterium tuberculosis, H37RV, read-out: WT H37Rv MTB Activity
E. coli = assay: Gram negative MIC protocol (OD600, LB, 24 h); settings: Escherichia coli
Procedure: (§1) Overnight bacterial cultures were grown in LB with no added antibiotics at 37° C. with shaking. A 1:1000 dilution of these cultures into LB was exposed to concentration gradients of compounds in 96-well plates (100 μL per well assay volume). Resulting plates were incubated at 37° C. for 24 h without shaking, and OD600 was measured at the end of the incubation. MICs were determined as the lowest concentrations at which OD600 remained at baseline.

A. baumannii = assay: Gram negative MIC protocol (OD600, LB, 24 h); settings: Acinetobacter baumannii
Procedure: as §1

[1] = read-out: MIC E. coli delta-TolC LB Media, E. coli delta-TolC strain, LB media, 24 h, OD600
[2] = read-out: MIC WT E. coli LB Media, wild-type E. coli, LB media, 24 h, OD600
[3] = read-out: MIC A. baumannii LB Media, A. baumannii, LB media, 24 h, OD600

| SMILES | MIC (H37RvMA; WT H37Rv MTB) [µM] | MIC (E. coli; [1]) [µM] | MIC (E. coli; [2]) [µM] | MIC (A. baumannii; [3]) [µM] | MIC (H37RvMA) [µM] | MIC (A. baumannii; read-out: MIC A. baumannii LB Media) [µM] |
| --- | --- | --- | --- | --- | --- | --- |
| CC(CC1CCCCC1)NCc1ccccc1OCC(=O)N(C)Cc1ccco1 (stereo not shown) [B318] | 150 (≈ 59.8 µg/mL) | 7 (≈ 2.79 µg/mL) | > 150 | > 150 |  |  |
| CC(CC1CCCCC1)NCc1ccccc1O (stereo not shown) [B319] |  | 12 (≈ 2.97 µg/mL) | 33 (≈ 8.16 µg/mL) |  | 150 (≈ 37.1 µg/mL) | > 150 |
| CC(CC1CCCCC1)NCc1ccccc1OCC(=O)N(C)C (stereo not shown) [B320] | > 150 | 20 (≈ 6.65 µg/mL) | > 150 | > 150 |  |  |
| CC(CC1CCCCC1)NCc1ccccc1OC(F)(F)F (stereo not shown) [B321] | > 150 | 55 (≈ 17.3 µg/mL) | > 150 | > 150 |  |  |
| CC(CC1CCCCC1)NCc1ccccc1OCc1nnn(C)n1 (stereo not shown) [B322] | > 150 | 4 (≈ 1.37 µg/mL) | 150 (≈ 51.5 µg/mL) | 150 (≈ 51.5 µg/mL) |  |  |
| CC(CC1CCCCC1)NCc1ccccc1OCc1nc(C(C)C)no1 (stereo not shown) [B323] | 150 (≈ 55.7 µg/mL) | 4 (≈ 1.49 µg/mL) | > 150 | > 150 |  |  |
| CCc1noc(COc2ccccc2CNC(C)CC2CCCCC2)n1 (stereo not shown) [B324] | > 150 | 7 (≈ 2.5 µg/mL) | > 150 | > 150 |  |  |
| CC(CC1CCCCC1)NCc1ccccc1OCC(=O)NC(=O)NC(C)(C)C (stereo not shown) [B325] | 91 (≈ 36.7 µg/mL) | 4 (≈ 1.61 µg/mL) | > 150 | 150 (≈ 60.5 µg/mL) |  |  |
| CC(CC1CCCCC1)NCc1ccccc1OC1CC2CCC1(C)C2(C)C (stereo not shown) [B326] | 55 (≈ 21.1 µg/mL) | 12 (≈ 4.6 µg/mL) | > 150 | > 150 |  |  |
| COC(=O)C(C)Oc1ccccc1CNC(C)CC1CCCCC1 (stereo not shown) [B327] | > 150 | 7 (≈ 2.33 µg/mL) | > 150 | > 150 |  |  |
| c1ccc(OCC2CCCCO2)c(CNCCC2CCCCC2)c1 (stereo not shown) [B328, 2-cyclohexyl-N-(2-((tetrahydro-2H-pyran-2-yl)methoxy)benzyl)ethanamine hydrochloride] | 150 | 55 | > 150 | > 150 |  |  |
| c1ccc(OCC2CCCO2)c(CNCCC2CCCCC2)c1 (stereo not shown) [B329, 2-cyclohexyl-N-(2-((tetrahydrofuran-2-yl)methoxy)benzyl)ethanamine] | > 150 | 33 (≈ 10.5 µg/mL) | > 150 | > 150 |  |  |
| c1ccc(OCC2CCOC2)c(CNCCC2CCCCC2)c1 (stereo not shown) [B330, 2-cyclohexyl-N-(2-((tetrahydrofuran-3-yl)methoxy)benzyl)ethanamine] | > 150 | 33 (≈ 10.5 µg/mL) | > 150 | > 150 |  |  |
| c1ccc(OCC2CCOCC2)c(CNCCC2CCCCC2)c1 [B331, 2-cyclohexyl-N-(2-((tetrahydro-2H-pyran-4-yl)methoxy)benzyl)ethanamine] | > 150 | 33 (≈ 10.9 µg/mL) | > 150 | > 150 |  |  |
| CC(CC1CCCCC1)NCc1ccccc1OCC(=O)N1CC(C)OC(C)C1 (stereo not shown) [B333] | > 150 | 7 (≈ 2.82 µg/mL) | > 150 | > 150 |  |  |
| Cc1nc(COc2ccccc2CNC(C)CC2CCCCC2)no1 (stereo not shown) [B334] | > 150 | 7 (≈ 2.4 µg/mL) | > 150 | > 150 |  |  |
| CC(CC1CCCCC1)NCc1ccccc1OCC(=O)NC(N)=O (stereo not shown) [B335] | > 150 | 4 (≈ 1.39 µg/mL) | 55 (≈ 19.1 µg/mL) | 150 (≈ 52.1 µg/mL) |  |  |
| CC(CC1CCCCC1)NCc1ccccc1OCC(=O)NCC1CCCO1 (stereo not shown) [B336] | > 150 | 33 (≈ 12.8 µg/mL) | > 150 | > 150 |  |  |
| CC(CC1CCCCC1)NCc1ccccc1OCCO (stereo not shown) [B337] | > 150 | 4 (≈ 1.17 µg/mL) | 55 (≈ 16 µg/mL) | 150 (≈ 43.7 µg/mL) |  |  |
| CC(CC1CCCCC1)NCc1ccccc1OCC(N)=O (stereo not shown) [B338] | > 150 | 12 (≈ 3.65 µg/mL) | 91 (≈ 27.7 µg/mL) | > 150 |  |  |
| OB1OCc2cccc(CNCCC3CCCCC3)c21 [B339] | > 150 | 200 (≈ 54.6 µg/mL) | > 300 | > 300 |  |  |
| OB(O)c1ccccc1CNCCC1CCCCC1 [B340, 2-((2-cyclohexylethylamino)methyl)phenylboronic acid] | > 150 | 55 (≈ 14.4 µg/mL) | > 150 | > 150 |  |  |

Reference: patent US11261201B2 (priority 2018, dated 2022)
